Test results from US8097608B2, “Methods for treatment of cardiovascular disorders and diseases” (Technion Research and Development Foundation Ltd., priority 2003, dated 2012).

Legend:
naïve rats = assay: Cardiovascular hemodynamic parameters in naive rats after IV bolus; assay type: in vivo, rat
Method: As the first step in testing the beneficial in vivo efficacy of the propargylamine derivatives on the cardiac function, we measured key cardiovascular hemodynamic parameters in control naïve rats, and in rats administered IV with a bolus of 1 mg/kg S(−)—N-propargyl-1-aminoindan, followed with a bolus of 10 mg/kg S(−)—N-propargyl-1-aminoindan (Sprague Dawley rats were used, n=3 rats in each group). Measurements were made at baseline, 30 minutes after each drug administration, and 1 hour (recovery) after drug administration.

[1] = test system: neonatal rat ventricular myocytes; assay: Fas-mediated hypertrophy in cultured neonatal rat ventricular myocytes (ANP mRNA, RT-PCR); assay type: cell-based; settings: rFasL 24 hours; for ANP mRNA elevation induced by Fas activation: 10 μM, 3 experiments per drug
Method: In order to test whether rasagiline can prevent the marked hypertrophy induced in cultured neonatal rat ventricular myocytes (for methods, see Yaniv et al., 2002), Fas was activated for 24 hours by incubation with rFasL (10 ng/ml plus 1 μg/ml of the enhancer antibody). Hypertrophy was assessed by determining the mRNA levels (by means of RT-PCR) of the atrial natriuretic peptide (ANP), which is a most common molecular marker of hypertrophy. Rasagiline ([…]) was added to the culture 1 hour before Fas activation and remained in the medium throughout the 24 hours exposure to rFasL.
In order to test whether S(−)—N-propargyl-1-aminoindan and propargylamine have the same effect on marked hypertrophy induced in cultured neonatal rat ventricular myocytes, similar experiments were performed using either propargylamin or S(−)—N-propargyl-1-aminoindan (both at a concentration of 10 μM) instead of rasagiline.

[2] = test system: neonatal rat ventricular myocytes; assay: Doxorubicin-induced apoptosis in neonatal rat ventricular myocytes (caspase-3 cleavage); assay type: cell-based; settings: 1 or 10 μM, added 24 hours before; 1 μM doxorubicin 24 hours
Method: In order to test whether propargylamine or S(−)—N-propargyl-1-aminoindan can prevent doxorubicin-induced apoptosis in cultured neonatal rat ventricular myocytes, these drugs (at a concentration of either 1 or 10 μM) were introduced to the culture medium 24 hours before the incubation (24 hours) with 1 μM doxorubicin.

CHF rats = assay: Echocardiography in volume overload-induced CHF rats (AVF); assay type: in vivo, rat; settings: 7.5 mg/kg/day orally, 21 days from 7 days prior to surgery; for Reduction in fractional shortening: day 21 (14 days post-surgery)
Method: (§1) (v) Animals. Studies were conducted on male Sprague Dawley rats (Harlan Laboratories Ltd., Jerusalem, Israel), weighing ˜300 g. The animals were kept in a temperature-controlled room and maintained on standard rat diet (0.5% NaCl). All experiments were performed according to the guidelines of the Technion Committee for Supervision of Animal Experiments (Haifa, Israel). […] Sham-operated rats served as controls. Drugs (or saline as control) were orally administered, starting 7 days prior to surgery (day 0) and were continued for 21 days. Surgery was performed on day 7 and animals sacrified 14 days post-surgery (day 21). Cardiac function was determined by echocardiography on days 0, 10 (3 days post-surgery) and 21 (before sacrifice). After the last echocardiography measurement, rats were sacrified and hearts were analyzed.
Rats were treated as described in Materials and Methods hereinabove and volume overload was induced by surgical creation of an aortocaval fistula (AVF). Drugs (7.5 mg/kg/day) were administered according to the protocol described above, starting 7 days prior to surgery (day 0) and during 21 days. Cardiac function was determined by echocardiography, from which two principle parameters, namely, diastolic area and systolic area, were calculated. These parameters were used for calculating the fractional shortening, which is an established measure of the ventricular contraction capacity, according to the equation: Fractional shortening =(diastolic area-systolic area)/diastolic area.

[3] = test system: caspase-3 and cytochrome C in CHF rats; assay: Caspase-3 and cytosolic cytochrome C in volume overload-induced CHF rats (AVF); assay type: in vivo, rat
Method: as §1
Rats were treated as described in Materials and Methods hereinabove and volume overload was induced by surgical creation of an aortocaval fistula (AVF). Sham-operated rats served as controls. 14 days after induction of volume-overload, caspase-3 cleavage and cytosolic cytochrome C, both pro-apoptotic proteins, were analyzed.
In the following experiment we tested whether propargylamine or S(−)—N-propargyl-1-aminoindan can reduce CHF-induced increase in caspase-3 and cytochrome C. Rats were treated and drugs were administered (1 or 7.5 mg/kg/day S(−)—N-propargyl-1-aminoindan, or 5 mg/kg/day propargylamine) as described in Materials and Methods hereinabove.

H9c2 cells [4] = assay: Serum starvation-induced apoptosis in H9c2 cells, MTT staining assay; assay type: cell-based, rat; settings: 0.1-10 μM; 0% FCS for 24 hours
Method: (§2) (b) Serum starvation—To induce apoptosis, H9c2 cultures were incubated in the culture medium containing 0% FCS for the indicated times.

H9c2 cells [5] = assay: Fas-mediated (rFasL) apoptosis in H9c2 cells, DAPI staining; assay type: cell-based, rat; settings: added 16 hours before and present throughout
Method: (§3) (ii) Cell Line H9c2. Experiments were performed on the embryonic rat heart cell line H9c2. H9c2 cells were cultured in DMEM (Biological Industries, Beit-Haemek, Israel) supplemented with 10% fetal calf serum (FCS), 50 units/ml penicillin G, 50 μg/ml streptomycin sulfate, 2 mg/ml L-glutamine and sodium pyruvate. H9c2 cells were harvested by trypsinization, washed with PBS, diluted to a concentration of 5×10^4 cells/ml with DMEM (high glucose) and cultured at 0.5 ml/well on sterile glass cover slips in 24-well plates.
(c) Activation of the Fas receptor—Fas activation was induced by incubating the cultures with recombinant human Fas Ligand (rFasL; 10 ng/ml) plus the enhancing antibody (1 μg/ml) for the indicated times, according to the manufacturer's recommendations (Alexis Biochemicals, San Diego, Calif.).
(§4) (iv) Determination of Apoptosis by DAPI. Cultures were counterstained with 4′, 6-diamidino-2-phenylindole (DAPI) to visualize the nuclear morphology.
Cultures of embryonic rat heart cell line H9c2 were incubated with rFasL (10 ng/ml) and an enhancing antibody for periods of time of 9, 10 and 24 hours, and apoptosis measured thereafter.
In order to determine whether rasagiline can prevent Fas-mediated apoptosis, the Fas receptor was activated for 9, 10 and 24 hours as described above. Rasagiline (10 μM) was introduced to the culture medium 16 hours before, and was present throughout the apoptosis-inducing protocol (n=3 wells).
Each one of the drugs, at a concentration of either 0.1 or 1.0 μM was introduced to the culture medium 16 hours before, and was presented throughout the apoptosis-inducing protocol (n=3 wells).

[6] = test system: Bax, Bcl-2, PKC-ε in hearts of naïve rats; assay: Anti-apoptotic and pro-apoptotic proteins in hearts of naive rats; assay type: in vivo, rat; settings: 5 mg/kg/day orally for 21 days
Method: In this experiment we tested the effects of propargylamine and S(−)—N-propargyl-1-aminoindan on several key anti-apoptotic and pro-apoptotic proteins in hearts of naïve rats.
The drugs (5 mg/kg/day) were orally administered to rats for 21 days (n=4-6 rats in each group), and measurements were made after sacrifice. […] Furthermore, both propargylamine and S(−)—N-propargyl-1-aminoindan increased the expression of the key anti-apoptotic PKC-ε (FIGS. 9D-9E, respectively).

[7] = test system: neonatal rat ventricular myocytes; assay: Serum starvation-induced apoptosis in neonatal rat ventricular myocytes (caspase-3 cleavage, Bcl-2); assay type: cell-based; settings: 0.1 μM, added 1 hour before; 0% FCS, 24 hours
Method: Caspase-3 is a protein of the cysteine-aspartic acid protease (caspase) family, known as a key pro-apoptotic protein and therefore as a common marker of apoptosis.
In order to test whether propargylamine can prevent serum starvation-induced apoptosis in cultured neonatal rat ventricular myocytes, we repeated the serum starvation protocol and 0.1 μM propargylamine was introduced to the culture medium 1 hour before serum starvation. As shown in FIGS. 6B-6C, propargylamine attenuated serum starvation-induced apoptosis in neonatal rat ventricular myocytes as indicated both by the drug-induced decrease in caspase 3 cleavage (FIG. 6B) and increase in the expression of mitochondrial Bcl-2, known as an anti-apoptotic protein (FIG. 6C).

H9c2 cells [8] = assay: Serum starvation-induced apoptosis in H9c2 cells, DAPI staining; assay type: cell-based, rat
Method: as §3, §2, §4
The next apoptosis-inducing stimulus tested was serum starvation ([…], 0% serum in the culture medium). To induce apoptosis, H9c2 cells were incubated in the culture medium containing 0% FCS for 6, 7, 8 or 9 hours. Rasagiline (10 μM) was introduced to the culture medium 2 hours before inducing serum starvation and was present throughout the apoptosis-inducing protocol (n=3 wells).
In another experiment, we repeated the serum starvation protocol, and also tested in the same cultures whether rasagiline can protect against H2O2-induced apoptosis. Rasagiline was introduced to the culture medium 2 hours before inducing serum starvation or adding H2O2, and was present throughout the apoptosis-inducing protocol (n=4 experiments; ˜2000 cells counted).

[9] = 10 mg/kg IV bolus, 30 minutes after administration
[10] = 0.1 or 1.0 μM, ~10 hours incubation with rFasL (~10% apoptosis)

With C#CCN[C@H]1CCc2ccccc21 [S(−)—N-propargyl-1-aminoindan] the Cardiac index (naïve rats; [9]) was “markedly increased”, the Cardiac output (naïve rats; [9]) was “markedly increased” and the Heart rate (naïve rats; [9]) was “did not affect”. The “Mean arterial pressure (MAP)” value (naïve rats; [9]) was “did not affect”, the “Reversibility of the effect on cardiac function” value (naïve rats; washout period (recovery, 1 hour after administration)) was “reversible” and the “ANP mRNA elevation induced by Fas activation” value [1] was “completely blocked”. The “Doxorubicin-induced apoptosis (caspase-3 cleavage)” value [2] was “significantly attenuated”, the “Reduction in fractional shortening” value (CHF rats) was “completely prevented” and the “Hypertrophic increase in the diastolic area” value (CHF rats; days 10 and 21) was “completely prevented”. The “Hypertrophic increase in the systolic area” value (CHF rats; days 10 and 21) was “completely prevented”, the “CHF-induced increase in cytochrome C” value ([3]; 1 mg/kg/day orally for 21 days (FIG. 11B)) was “significantly reduced” and the “CHF-induced increase in caspase-3” value ([3]; 7.5 mg/kg/day orally for 21 days (FIG. 11A)) was “significantly reduced”. The “Anti-apoptotic effect, serum starvation, MTT staining” value (H9c2 cells [4]) was “anti-apoptotic effect”, the Fas-mediated apoptosis (H9c2 cells [5]; [10]) was “completely prevented” and the “Expression of anti-apoptotic PKC-ε” value [6] was “increased”.

For C#CCN [propargylamine], the “Caspase 3 cleavage, serum starvation” value [7] was “decrease”, the “Expression of mitochondrial Bcl-2, serum starvation” value [7] was “increase” and the “ANP mRNA elevation induced by Fas activation” value [1] was “completely blocked”. For the same compound, the “Doxorubicin-induced apoptosis (caspase-3 cleavage)” value [2] was “significantly attenuated”, the “Hypertrophic increase in the diastolic area” value (CHF rats; 14 days post-surgery) was “completely prevented” and the “Hypertrophic increase in the systolic area” value (CHF rats; 14 days post-surgery) was “completely prevented”. For the same compound, the “Reduction in fractional shortening” value (CHF rats) was “completely prevented”, the “CHF-induced increase in caspase-3” value ([3]; 5 mg/kg/day orally for 21 days) was “significantly reduced” and the “CHF-induced increase in cytochrome C” value ([3]; 5 mg/kg/day orally for 21 days (FIG. 11B)) was “significantly reduced”. For the same compound, the Fas-mediated apoptosis (H9c2 cells [5]; [10]) was “completely prevented”, the “Expression of anti-apoptotic PKC-ε” value [6] was “increased” and the “Expression of mitochondrial anti-apoptotic protein Bcl-2” value [6] was “markedly increased”. For the same compound, the “Expression of mitochondrial pro-apoptotic protein Bax” value [6] was “did not affect” and the “Ratio Bcl-2/Bax” value [6] was “marked increase”.

With C#CCN[C@@H]1CCc2ccccc21 [rasagiline, R(+)—N-propargyl-1-aminoindan] the “Fas-mediated hypertrophy (ANP mRNA)” value ([1]; 10 μM/ml, added 1 hour before, preliminary, data not shown) was “prevented Fas-mediated hypertrophy”, the Serum starvation-induced apoptosis (H9c2 cells [8]; 10 μM, added 2 hours before, 9 hrs serum starvation (12% apoptosis)) was “completely prevented” and the “Anti-apoptotic effect, serum starvation” value (H9c2 cells [8]; 0.1-10 μM, added 2 hours before, 0% FCS for 24 hours) was “anti-apoptotic effect”. For the same compound, the “Apoptosis induced by serum starvation” value (H9c2 cells [8]; Example 3, added 2 hours before, n=4 experiments) was “prevented” and the Fas-mediated apoptosis (H9c2 cells [5]; 10 μM, 10 hours incubation with rFasL (~20% apoptosis)) was “completely prevented”.
